This assay relates to murine neural precursor cells (neurosphere cultures). In words: HTS of LOPAC library against secondary neurosphere cultures, MTT proliferation assay at 3 μM, day 7 (z score, P value). Type of assay: cell-based, mouse. In general terms: Formazan colour is commonly taken as a measure of viable cells.
The mark [1] stands for this setting: LOPAC library screen at 3 μM, MTT, secondary neurosphere cultures, screened in singlets.
The mark [2] stands for this setting: primary LOPAC screen, 3 μM, MTT, neurosphere proliferation.
Setting [3] is: yes/no: significantly inhibited neurosphere proliferation in the primary screen.
Where [4] appears, read: LOPAC library screen, 3 μM, MTT, neurosphere cultures.
[5] abbreviates: LOPAC primary screen, neurosphere MTT proliferation, 3 μM, day 7.
Setting [6] is: yes/no: significantly inhibited neurosphere proliferation in primary screen.
Where [7] appears, read: LOPAC library screen at 3 μM, secondary neurosphere cultures, MTT.
Setting [8] is: LOPAC screen, neurosphere MTT proliferation, 3 μM, day 7.
Setting [9] is: yes/no: significantly inhibited neurosphere proliferation (P<0.01) in primary screen.
The mark [10] stands for this setting: yes/no: significantly inhibited neurosphere proliferation (P<0.01) in the primary screen.
Where [11] appears, read: LOPAC library screen, 3 μM, MTT, secondary neurosphere cultures, day 7.

Counter-ions that a name gives are not always drawn. Like-named read-outs stand apart in the source and are kept apart here.

For `Cc1ccc(C(=O)Nc2ccc(S(=O)(=O)[O-])c3cc(S(=O)(=O)[O-])cc(S(=O)(=O)[O-])c23)cc1NC(=O)c1cccc(NC(=O)Nc2cccc(C(=O)Nc3cc(C(=O)Nc4ccc(S(=O)(=O)[O-])c5cc(S(=O)(=O)[O-])cc(S(=O)(=O)[O-])c45)ccc3C)c2)c1.[Na+].[Na+].[Na+].[Na+].[Na+].[Na+]` [Suramin hexasodium], under setting [1], the “Z Score” value is reported as 2.284. Under setting [2], this molecule showed a Z score of 2.284. Moreover, the Activity result under setting [3] was “no”.

Turning to `N=C(N)NC(=O)Cc1c(Cl)cccc1Cl` [Guanfacine hydrochloride], the “Z Score” value under setting [4] was found to be 0.9271.

As for `O=C(O)C1CCCNC1` (racemic) [(±)-Nipecotic acid], the Z score is −0.722.

Consider `CCCn1c(=O)c2[nH]c(-c3ccc(S(=O)(=O)O)cc3)nc2n(CCC)c1=O` [1,3-Dipropyl-8-p-sulfophenylxanthine], for which the “Z Score” value stood at 4.743 and the Z score is given as 4.743. Further, the Activity entry under setting [3] is “no”.

As for `CN(C)S(=O)(=O)c1ccc2c(c1)/C(=C/c1cc3c([nH]1)CCCC3)C(=O)N2` [SU 6656], the “Z Score” value came out at 0.3165. For the same molecule, under setting [5], the Z score was 0.316. In addition, the Activity result under setting [6] is on record as “no”.

Take `CCSC(N)=Nc1ccc(C(F)(F)F)cc1.Cl` [TFPI hydrochloride]: the “Z Score” value under setting [7] is −1.156. In addition, the Z score under setting [5] was −1.156. Besides, the Activity result under setting [6] is given as “no”.

On to `COc1cc(C(=O)OCCCN2CCCN(CCCOC(=O)c3cc(OC)c(OC)c(OC)c3)CC2)cc(OC)c1OC` [Dilazep hydrochloride], for which the “Z Score” value under setting [4] stood at 0.2448. The same molecule yielded a Z score under setting [8] of 0.245. Besides, the Activity result under setting [9] is “no”.

Take `O=C(OCCN1CCCCC1)c1c[nH]c2ccccc12` [SB 203186]: the “Z Score” value is on record as 0.9365. The molecule also returned a Z score under setting [8] of 0.937. Also, under setting [9], the Activity result is listed as “no”.

For `O=C1NC(=O)C(c2ccccc2)(c2ccccc2)N1` [5,5-Diphenylhydantoin], under setting [4], the “Z Score” value was determined as 1.383. Besides, the Z score under setting [8] was 1.383. Further, under setting [9], the Activity entry is given as “no”.

As for `O=C1NC(=O)C(c2ccccc2)(c2ccccc2)N1` [Phenytoin sodium], the “Z Score” value under setting [7] is recorded as −0.2166. The Z score under setting [8] was −0.217. The Activity entry under setting [9] is given as “no”.

`COc1ccc2c3c1O[C@H]1C(=O)CC[C@@]4(O)[C@@H](C2)N(CC2CC2)CC[C@]314.Cl` [(−)-3-Methoxynaltrexone hydrochloride]: the “Z Score” value is reported as 0.5963. The same molecule registered a Z score under setting [5] of 0.596. Besides, under setting [10], the Activity entry is “no”.

Regarding `CCOC(=O)C1=C(C)NC(=S)NC1c1cccc(O)c1` (stereo not shown) [Monastrol], for the setting “168 h, 3 µM”, the “Z Score” value was −1.162 and the Z score is reported as −1.162.

For the molecule `CCN1CCCC1CNC(=O)c1cc(S(N)(=O)=O)ccc1OC` (single isomer, unassigned; (-)) [(−)-Sulpiride], the “Z Score” value under setting [11] is −2.647. Besides, the Z score under setting [5] is on record as −2.647. Under setting [10], the Activity entry is “yes”.

As for `C[C@@H]1C(=O)NC2=Nc3cccc(Cl)c3CN21` [Quazinone], under setting [4], the “Z Score” value was 0.2046. The same molecule gave a Z score under setting [5] of 0.205. The Activity entry under setting [6] is reported as “no”.

Take `CCn1nc(C(=O)O)c(=O)c2cc3c(cc21)OCO3` [Cinoxacin]: the “Z Score” value under setting [7] is given as −1.095. Besides, under setting [8], the Z score is recorded as −1.095. The Activity result under setting [9] is “no”.

Turning to `N[C@@H](Cn1cc(I)c(=O)[nH]c1=O)C(=O)O` [S-5-Iodowillardiine], the “Z Score” value is reported as −0.3551. The Z score under setting [2] is on record as −0.355. Moreover, under setting [3], the Activity entry is “no”.

In the case of `Cl.Cl.N=C(N)c1ccc(N)cc1` [4-Aminobenzamidine dihydrochloride], the “Z Score” value is recorded as −1.287. The Z score under setting [5] is −1.287. The Activity entry (yes = significantly inhibited neurosphere proliferation (P<0.01) in the primary screen) was “no”.

Regarding `Br.CO[C@H]1CC=C2CCN3CCC4=C(CC(=O)OC4)[C@]23C1` [Dihydro-beta-erythroidine hydrobromide], the “Z Score” value was −1.788. Also, the Z score under setting [5] is reported as −1.788. For the same molecule, the Activity entry under setting [9] is “no”.

Regarding `C[N+](C)(C)CCOC(=O)CCC(=O)OCC[N+](C)(C)C` [Succinylcholine chloride], the “Z Score” value was −1.93. The Z score under setting [5] is listed as −1.930. For the same molecule, the Activity entry under setting [6] is reported as “no”.

Regarding `NS(=O)(=O)c1cc2c(cc1Cl)NC(C1CC3C=CC1C3)NS2(=O)=O` (stereo not shown) [Cyclothiazide], under setting [7], the “Z Score” value is listed as −0.907. In addition, the Z score under setting [8] is −0.907. Under setting [9], the Activity entry is reported as “no”.

In the case of `COc1ccccc1OCC(O)CN1CCN(CC(=O)Nc2c(C)cccc2C)CC1` (stereo not shown) [Ranolazine dihydrochloride], the “Z Score” value under setting [11] was −2.104. Besides, the Z score under setting [5] was −2.104. Further, the Activity result under setting [6] is reported as “no”.

As to `C[C@@H]1O[C@H](C[N+](C)(C)C)CS1.[I-]` [OXA-22 iodide], the Activity entry is reported as “no”, the “Z Score” value is −1.666 and the Z score is given as −1.666.

With `NC(=O)c1ccccc1` [Beuzamide], the “Z Score” value is reported as 0.5498.

Consider `C=CCn1c(=O)c2c(nc(-c3ccc(S(=O)(=O)O)cc3)n2C)n(C)c1=O` [1-Allyl-3,7-dimethyl-8-p-sulfophenylxanthine], for which the “Z Score” value under setting [11] is given as −2.178. The Z score under setting [2] was −2.178. Further, under setting [3], the Activity entry is “no”.

In the case of L(−)-Norepinephrine bitartrate, the “Z Score” value under setting [11] was −1.418. In addition, the Z score under setting [2] is −1.418. Also, the Activity entry under setting [3] is reported as “no”.

With `Nc1nccc2c1ncn2[C@@H]1O[C@H](CO)[C@@H](O)[C@H]1O` [3-deazaadenosine], under setting [1], the “Z Score” value is recorded as 1.77. Under setting [8], this molecule gave a Z score of 1.770. The Activity result under setting [9] is given as “no”.

With `CC(C)CC(NC(=O)C1OC1C(=O)O)C(=O)NCCCCNC(=N)N` (stereo not shown) [E-64], the “Z Score” value is recorded as −1.709. Under setting [8], the Z score is −1.709. The Activity result under setting [9] is on record as “no”.

For `CN(C)CCC(c1ccc(Br)cc1)c1ccccn1.O=C(O)/C=C\C(=O)O` (racemic) [(±)-Brompheniramine maleate], the Z score under setting [5] is given as −3.530. Also, the Activity result under setting [10] is on record as “yes”.

Consider `O=C(O)c1cc[c]([Hg][Cl])cc1` [4-Chloromercuribenzoic acid], for which the “Z Score” value is recorded as −0.03193. Under setting [8], the Z score is recorded as −0.032. For the same molecule, the Activity entry under setting [9] is “no”.

For the molecule `N=C(N)NOCC[C@H](N)C(=O)O.O=S(=O)(O)O` [L-Canavanine sulfate], the “Z Score” value was −0.9024. The Z score under setting [8] was −0.902. Also, the Activity result under setting [9] is listed as “no”.

In the case of `Nc1ncn([C@@H]2O[C@H](CO)[C@@H](O)[C@H]2O)c(=O)n1` [5-azacytidine], under setting [11], the “Z Score” value is −1.398. The Z score under setting [2] is −1.398. Moreover, the Activity entry under setting [3] is “no”.

For `Cl.OC1CCCCC1N1CCC(c2ccccc2)CC1` (racemic) [(±)-Vesamicol hydrochloride], under setting [2], the Z score is listed as −1.967. Also, under setting [3], the Activity result is given as “no”.

Take `Cc1c2ccncc2c(C)c2c1[nH]c1ccccc12` [Ellipticine]: the “Z Score” value under setting [11] is −8.321.

In the case of `C#CCN(C)CCCOc1ccc(Cl)cc1Cl` [Clorgyline hydrochloride], the Activity entry is reported as “no”. The “Z Score” value under setting [1] is recorded as 1.52. The molecule also registered a Z score under setting [5] of 1.520.

Consider `COC(=O)C1=C(C)NC(C)=C([N+](=O)[O-])C1c1ccccc1C(F)(F)F` (racemic) [(±)-Bay K 8644], for which the Z score under setting [8] is given as 0.853. Besides, the Activity result under setting [9] is listed as “no”.

On to `CC(N)c1cccc(Cl)c1Cl.Cl` (stereo not shown), for which the “Z Score” value is reported as −2.251.

Regarding `O=C(O)/C(=C/c1c(C(=O)O)[nH]c2cc(Cl)cc(Cl)c12)c1ccccc1` [MDL 105,519], the Activity result is “no”, the “Z Score” value was 2.565 and the Z score is on record as 2.565.

Consider `Cl.NC1(C(=O)O)CC1` [1-Aminocyclopropanecarboxylic acid hydrochloride], for which the Activity entry is “yes”, the “Z Score” value was −2.401 and the Z score is given as −2.401.

As to `Cn1c(=O)c2[nH]cnc2n(C)c1=O.Cn1c(=O)c2[nH]cnc2n(C)c1=O.NCCN` [Aminophylline ethylenediamine], the Activity result is “no”. In addition, the “Z Score” value under setting [11] is given as −1.537. Further, the Z score under setting [2] is −1.537.

As for `CC(C)NCC(O)c1ccc(O)c(O)c1.Cl` (stereo not shown) [(B1)-Isoproterenol hydrochloride], the “Z Score” value is −0.5717.

With `CSc1ccc2c(c1)N(CCC1CCCCN1C)c1ccccc1S2` (stereo not shown) [Thioridazine hydrochloride], under “168 h, 3 µM”, the “Z Score” value is given as 0.2356 and the Z score is 0.236. The Activity entry under setting [10] was “no”.

As to `CN1CCN(CC(=O)N2c3ccccc3C(=O)Nc3cccnc32)CC1.Cl.Cl` [Pireuzepine dihydrochloride], the “Z Score” value is reported as −0.545.

On to `O=C(c1ccc2c(c1)OCCO2)N1CCCCC1` [CX 546], for which the “Z Score” value is listed as −1.05. For the same molecule, the Z score under setting [8] was −1.050. Moreover, the Activity entry under setting [9] is given as “no”.

Consider `C[C@]12CC[C@@H](O)C[C@@H]1CC[C@@H]1[C@@H]2CC[C@]2(C)[C@@H](O)CC[C@@H]12` [5alpha-Androstane-3alpha,17beta-diol], for which the Z score under setting [2] is −0.381. The Activity result under setting [3] is on record as “no”.

With `CNCC(O)c1ccc(O)c(O)c1.Cl` (racemic) [(±)-Epinephrine hydrochloride], the Z score under setting [5] is −0.328. The Activity result under setting [9] is reported as “no”.

Regarding `CC(C)Cc1ccc([C@H](C)C(=O)O)cc1` [S(+)-Ibuprofen], the “Z Score” value under setting [7] is recorded as −0.7335. For the same molecule, the Z score under setting [5] is listed as −0.733. In addition, the Activity result under setting [9] is reported as “no”.

(Values after patent publication US8058243B2, “Method for treating a brain cancer with ifenprodil” (HSC Research and Development Limited Partnership, priority 2006, dated 2011).)
